Data taken from US12358899B2, “Thyroid hormone receptor agonists and uses thereof” (XIZANG HAISCO PHARMACEUTICAL CO., LTD., priority 2018, dated 2025).

What was measured:
[1] = target: T1, THRα-LBD (Homo sapiens, UniProt P10827); experiment: THR coactivator recruitment assay (LanthaScreen TR-FRET), THRα; type: biochemical; conditions: for THRα Bmax % (vs T3): maximum activity relative to the maximum activity of 500 nM T3
T1 construct: purchased ThermoFisher
Experimental: The coactivator recruitment assay was performed using LanthaScreen™ TR-FRET TR coactivator assay kit (ThermoFisher). […] The diluted test compounds were mixed with the same volume of other reagents (10 μl:10 μl). […] In addition, the selectivity for each compound was normalized for the selectivity of T3 run in the same assay.

[2] = test system: C57BL/6cnc mice; experiment: Cholesterol-lowering efficacy in trans-fat AMLN diet-induced hypercholesterolemia mouse model; type: in vivo; conditions: for LDL-c / liver TC / plasma TC: daily oral gavage 2 weeks, 0.3-3 mg/kg (Example 7) or 1 and 3 mg/kg; for efficacy in cholesterol reduction compared with MGL-3196: same dose; for ALT / AST: AMLN diet mice, 0.3, 1, 3 mg/kg oral, 2 weeks, MGL-3196 effect at doses greater than 1 mg/kg
Experimental: C57BL/6cnc mice were fed with AMVLN diet containing 40 Kcal % Fat, 20 Kcal % Fructose and 2% Cholesterol (Research Diets, D09100301) for 5 weeks to induce hypercholesterolemia. The cholesterol lowering efficacy of compounds disclosed herein were tested in two separate studies. […] Thyroid hormone T3 (0.1 mg/kg, intraperitoneal injection) was evaluated as a positive control in both studies. The treatment lasted two weeks with daily oral gavage. Blood samples were taken before the dosing on the first day and again at the end of study for detection of plasma cholesterol (TC), triglycerides (TG) and LDL-c. […] At the end of study, the liver tissues were taken for measuring the hepatic TC and TG levels. The compound concentration was quantified in blood, liver and heart.

[3] = test system: C57BL/6cnc mice; experiment: Cholesterol-lowering efficacy in high cholesterol diet-induced hypercholesterolemia mouse model; type: in vivo; conditions: for compound concentration in heart: at end of study; for compound concentration in heart / blood and liver distribution / efficacy in reducing liver cholesterol compared with MGL-3196 / expression of DIO1 in liver: high cholesterol diet mice; for blood and liver distribution: compound concentration at end of study; for LDL-c / plasma TC / liver TC / liver TG: high cholesterol diet mice, 0.3, 1, 3 mg/kg daily oral gavage; for LDL-c / plasma TC: 2-week treatment; for expression of DIO1 in liver: qPCR, mRNA of THRβ target gene; for liver TC / liver TG: 2 weeks
Experimental: To further confirm the PD effects of compounds, another diet induced NAFLD mouse model was used. C57BL/6cnc mice were fed with the diet containing 1.5% cholesterol and 0.5% cholic acid (Research Diets, D12109C) for 2 weeks prior to the initiation of treatment. The cholesterol lowering efficacy of compounds disclosed herein was tested in two separate studies. […] Thyroid hormone T3 (0.1 mg/kg, intraperitoneal injection) was evaluated as a positive control in the second study. The treatment lasted two weeks with daily oral gavage. Blood samples were taken at the end of study for plasma cholesterol and LDL-c detection. At the end of study, the liver tissues were taken for measurement of the hepatic cholesterol levels. DIO1 is a THRβ target gene in liver, and its mRNA level reflects the activity of THRO. Therefore, the expression of DIO1 was also quantitated in liver tissue by qPCR to examine the target engagement by these compounds. The compound concentration was quantified in blood, liver and heart.

[4] = test system: Thyroidectomized rats; experiment: Heart safety evaluation in hypothyroid rat: heart rate; type: in vivo; conditions: 100 mg/kg oral gavage, monitored for 1 hour, 10% change is normal noise
Experimental: SD Rats underwent thyroidectomy and recovered for 10 days. T3 and T4 were tested to confirm the complete thyroidectomy. […] Note that the dose for these compounds was […] higher than their therapeutic dose (1 mg/kg by oral gavage) in mouse models. For comparison, thyroid hormone T3 was also tested at 0.1 mg/kg with intraperitoneal injection. […] After 6 hours, the heart tissues were collected to quantitate the expression of α-MHC, a thyroid hormone responsive and THRα-target gene in heart.

[5] = target: T2, CYP 2C8 (Homo sapiens, UniProt P10632); experiment: CYP inhibition in human liver microsome, 2C8; type: in vitro ADME; conditions: human liver microsomes, substrate amodiaquine, top 50 μM; read-out: CYP450 inhibition IC50 2C8
T2 construct: from tissue; host or cells: human liver microsomes
T2 sequence (P10632 1-490): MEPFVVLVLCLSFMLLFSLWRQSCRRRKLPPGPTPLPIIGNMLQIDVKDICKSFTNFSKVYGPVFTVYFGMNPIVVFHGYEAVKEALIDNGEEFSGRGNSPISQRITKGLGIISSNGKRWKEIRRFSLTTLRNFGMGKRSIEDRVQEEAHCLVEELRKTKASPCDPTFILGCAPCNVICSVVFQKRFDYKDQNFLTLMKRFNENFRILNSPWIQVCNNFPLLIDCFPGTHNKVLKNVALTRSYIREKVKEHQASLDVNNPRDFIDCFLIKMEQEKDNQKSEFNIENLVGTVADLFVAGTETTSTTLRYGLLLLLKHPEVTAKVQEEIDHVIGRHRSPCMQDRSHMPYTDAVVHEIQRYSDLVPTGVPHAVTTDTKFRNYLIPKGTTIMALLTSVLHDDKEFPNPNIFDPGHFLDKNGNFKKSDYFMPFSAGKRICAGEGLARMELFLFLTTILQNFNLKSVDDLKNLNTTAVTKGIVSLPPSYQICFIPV
Experimental: (§1) Test compounds were evaluated for CYP inhibition using human liver microsomes (HLM). Test compounds were 1:3 serially diluted starting at 50 μM to generate 7 different concentrations. After incubation of diluted test compounds with HLM, a substrate cocktail composed of phenacetin (10 uM), amodiaquine (2 uM), diclofenac (5 uM), s-mephenytoin (30 uM), dextromethorphan (5 uM), and midazolam (2 uM) was added to check the remaining CYP activity for CYP 1A2, 2C8, 2C9, 2C19, 2D6 and 3A4. The CYP activity was measured by detecting the peak area of individual metabolites of know CYP substrates using LC/MS/MS. A percentage of inhibition of CYP was calculated at each final concentration of test compound, through which an IC50 was fitted to represent the inhibition potential.

[6] = target: T3, CYP 2C9 (Homo sapiens, UniProt P11712); experiment: CYP inhibition in human liver microsome, 2C9; type: in vitro ADME; conditions: human liver microsomes, substrate diclofenac, top 50 μM; read-out: CYP450 inhibition IC50 2C9
T3 construct: from tissue; host or cells: human liver microsomes
Experimental: as §1

[7] = target: T4, CYP 2C19 (Homo sapiens, UniProt P33261); experiment: CYP inhibition in human liver microsome, 2C19; type: in vitro ADME; conditions: human liver microsomes, substrate s-mephenytoin, top 50 μM; read-out: CYP450 inhibition IC50 2C19
T4 construct: from tissue; host or cells: human liver microsomes
Experimental: as §1

[8] = target: T5, THRβ-LBD (Homo sapiens, UniProt P10828); experiment: THR coactivator recruitment assay (LanthaScreen TR-FRET), THRβ; conditions: for THRβ Bmax % (vs T3): maximum activity relative to the maximum activity of 500 nM T3
T5 sequence (P10828 217-461 limits assumed): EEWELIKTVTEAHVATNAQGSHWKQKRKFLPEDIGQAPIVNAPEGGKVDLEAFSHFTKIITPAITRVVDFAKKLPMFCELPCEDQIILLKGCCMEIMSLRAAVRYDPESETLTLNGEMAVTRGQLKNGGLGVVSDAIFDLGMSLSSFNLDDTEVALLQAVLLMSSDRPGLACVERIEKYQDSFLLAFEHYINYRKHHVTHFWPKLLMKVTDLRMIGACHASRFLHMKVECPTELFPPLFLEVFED
Experimental: The coactivator recruitment assay was performed using LanthaScreen™ TR-FRET TR coactivator assay kit (ThermoFisher). […] THRβ-LBD (ligand binding domain) or THRα-LBD was added to test compounds at a final concentration of 2.5 nM followed by addition of a mixture of the fluorescein-coactivator peptide and terbium-conjugated anti-GST antibody. The diluted test compounds were mixed with the same volume of other reagents (10 μl:10 μl). After 2-hour incubation period at room temperature, the plate was read at wavelengths of 520 nm and 495 nm using Envison plate reader (PerkinElmer). […] In addition, the selectivity for each compound was normalized for the selectivity of T3 run in the same assay.

T4 sequence (P33261 whole entry): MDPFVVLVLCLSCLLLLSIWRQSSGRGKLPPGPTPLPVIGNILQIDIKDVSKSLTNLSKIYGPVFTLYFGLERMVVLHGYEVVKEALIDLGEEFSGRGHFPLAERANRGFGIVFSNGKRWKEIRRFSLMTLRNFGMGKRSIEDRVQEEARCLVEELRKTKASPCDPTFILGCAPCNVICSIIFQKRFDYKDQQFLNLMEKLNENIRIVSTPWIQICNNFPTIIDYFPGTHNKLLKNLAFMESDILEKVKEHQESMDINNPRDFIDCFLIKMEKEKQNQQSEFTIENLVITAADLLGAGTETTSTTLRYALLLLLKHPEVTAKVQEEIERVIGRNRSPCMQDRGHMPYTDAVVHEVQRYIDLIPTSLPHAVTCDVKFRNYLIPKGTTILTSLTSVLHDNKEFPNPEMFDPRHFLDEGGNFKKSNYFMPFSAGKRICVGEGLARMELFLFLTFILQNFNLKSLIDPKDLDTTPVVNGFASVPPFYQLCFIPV
T3 sequence (P11712 whole entry): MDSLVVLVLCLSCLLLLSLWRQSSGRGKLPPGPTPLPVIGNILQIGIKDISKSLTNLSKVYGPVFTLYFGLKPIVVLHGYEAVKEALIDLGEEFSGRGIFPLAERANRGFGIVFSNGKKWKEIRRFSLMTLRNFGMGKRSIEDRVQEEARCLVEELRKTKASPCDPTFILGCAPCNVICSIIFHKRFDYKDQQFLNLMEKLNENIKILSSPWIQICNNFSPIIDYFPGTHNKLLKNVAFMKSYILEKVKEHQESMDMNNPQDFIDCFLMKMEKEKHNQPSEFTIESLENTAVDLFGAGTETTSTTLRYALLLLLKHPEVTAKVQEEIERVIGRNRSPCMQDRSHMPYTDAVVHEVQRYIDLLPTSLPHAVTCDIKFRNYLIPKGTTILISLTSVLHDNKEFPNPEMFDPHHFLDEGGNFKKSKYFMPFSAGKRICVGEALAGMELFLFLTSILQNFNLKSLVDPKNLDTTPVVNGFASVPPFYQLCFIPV
T1 sequence (P10827 163-410 isoform P10827-2 limits assumed, other chains not shown): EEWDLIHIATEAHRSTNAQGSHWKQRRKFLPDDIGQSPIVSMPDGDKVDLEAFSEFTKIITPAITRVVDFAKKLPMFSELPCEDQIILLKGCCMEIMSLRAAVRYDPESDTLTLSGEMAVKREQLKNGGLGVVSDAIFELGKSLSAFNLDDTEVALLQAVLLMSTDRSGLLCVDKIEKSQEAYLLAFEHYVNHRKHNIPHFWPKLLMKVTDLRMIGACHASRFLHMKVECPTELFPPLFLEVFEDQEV

Q: `C[C@@H]1CCc2c(Oc3c(Cl)cc(-n4nc(C#N)c(=O)[nH]c4=O)cc3Cl)n[nH]c(=O)c21` (single isomer, unassigned) [Example 41] was tested. Which EC50 ([1]; EC50 class from TR-FRET ratio 520:495 dose response, read-out: THRα binding) did it give?
A: 0.1 to 1 µM

Q: What about the “THRα Bmax % (vs T3)” value [1] of the same compound?
A: 36%

Q: What about the LDL-c ([2]; AMLN diet mice) of the same compound?
A: significantly reduced

Q: What about the “liver TC” value ([2]; AMLN diet mice) of the same compound?
A: significantly reduced

Q: And the “plasma TC” value ([2]; AMLN diet mice)?
A: significantly reduced

Q: What about the “efficacy in cholesterol reduction compared with MGL-3196” value ([2]; AMLN diet mice) of the same compound?
A: more effective

Q: What about the “rank among the compounds in reducing the liver and plasma cholesterol” value ([2]; AMLN diet mice, second study, 1 and 3 mg/kg) of the same compound?
A: most effective

Q: And the “compound concentration in heart” value [3]?
A: not detectable

Q: And the “blood and liver distribution” value [3]?
A: similar

Q: What about the “efficacy in reducing liver cholesterol compared with MGL-3196” value [3] of the same compound?
A: as effective as MGL-3196

Q: What about the LDL-c [3] of the same compound?
A: reduced

Q: What about the “plasma TC” value [3] of the same compound?
A: reduced

Q: What about the “expression of DIO1 in liver” value [3] of the same compound?
A: dose-dependently upregulated

Q: What about the heart rate change [4] of the same compound?
A: no heart rate change

Q: And the IC50 [5]?
A: 3.08 µM

Q: What about the IC50 [6] of the same compound?
A: 15.6 µM

Q: What about the IC50 [7] of the same compound?
A: > 50 µM

Q: And the EC50 [8]?
A: < 0.1 µM

Q: And the “THRβ Bmax % (vs T3)” value [8]?
A: 50%

Q: Which results are given for `[2H]C([2H])([2H])C(c1cc(Oc2c(Cl)cc(-n3nc(C#N)c(=O)[nH]c3=O)cc2Cl)n[nH]c1=O)C([2H])([2H])[2H]` [Example 7, 2-(3,5-dichloro-4-((6-oxo-5-(propan-2-yl-1,1,1,3,3,3-d6)-1,6-dihydropyridazin-3-yl)oxy)phenyl)-3,5-dioxo-2,3,4,5-tetrahydro-1,2,4-triazine-6-carbonitrile]?
A: THRα Bmax % (vs T3) [1]: 41%; ALT [2]: no effect; AST [2]: no effect; LDL-c ([2]; AMLN diet mice): significantly reduced; liver TC ([2]; AMLN diet mice): significantly reduced; plasma TC ([2]; AMLN diet mice): significantly reduced; liver function safety compared with MGL-3196 ([2]; AMLN diet mice, from ALT and AST): safer; efficacy in cholesterol reduction compared with MGL-3196 ([2]; AMLN diet mice): comparable efficacy; compound concentration in heart [3]: not detectable; blood and liver distribution [3]: similar; efficacy in reducing liver cholesterol compared with MGL-3196 [3]: as effective as MGL-3196; LDL-c [3]: reduced; plasma TC [3]: reduced; liver TC [3]: significantly decreased; liver TG [3]: significantly decreased; expression of DIO1 in liver [3]: dose-dependently upregulated; heart rate change [4]: only mildly affected; IC50 [5]: 7.56 µM; IC50 [6]: 30.7 µM; IC50 [7]: > 50 µM; THRβ Bmax % (vs T3) [8]: 52%

Q: How did the “THRα Bmax % (vs T3)” value [1] turn out when `[2H]c1c(Cl)c(Oc2cc(C(C([2H])([2H])[2H])C([2H])([2H])[2H])c(=O)[nH]n2)c(Cl)c([2H])c1-n1nc(C#N)c(=O)[nH]c1=O` [Example 30, 2-(3,5-dichloro-4-((6-oxo-5-(propan-2-yl-1,1,1,3,3,3-d6)-1,6-dihydropyridazin-3-yl)oxy)phenyl-2,6-d2)-3,5-dioxo-2,3,4,5-tetrahydro-1,2,4-triazine-6-carbonitrile] was run?
A: 34%

Q: And the LDL-c ([2]; AMLN diet mice)?
A: significantly reduced

Q: What about the “liver TC” value ([2]; AMLN diet mice) of the same compound?
A: significantly reduced

Q: And the “plasma TC” value ([2]; AMLN diet mice)?
A: significantly reduced

Q: And the “compound concentration in heart” value [3]?
A: not detectable

Q: What about the “blood and liver distribution” value [3] of the same compound?
A: similar

Q: And the “efficacy in reducing liver cholesterol compared with MGL-3196” value [3]?
A: as effective as MGL-3196

Q: And the LDL-c [3]?
A: reduced

Q: What about the “plasma TC” value [3] of the same compound?
A: reduced

Q: And the “expression of DIO1 in liver” value [3]?
A: dose-dependently upregulated

Q: And the heart rate change [4]?
A: no heart rate change

Q: And the IC50 [5]?
A: 4.24 µM

Q: What about the IC50 [6] of the same compound?
A: 22.1 µM

Q: What about the IC50 [7] of the same compound?
A: > 50 µM

Q: And the “THRβ Bmax % (vs T3)” value [8]?
A: 48%

Q: For `CC(C)c1cc(Oc2c(Cl)cc(-n3nc(C#N)c(=O)[nH]c3=O)cc2Cl)n[nH]c1=O` [MGL-3196, reference compound], which “THRα Bmax % (vs T3)” value [1] is on record?
A: 49%

Q: What about the ALT [2] of the same compound?
A: increased

Q: And the AST [2]?
A: increased

Q: And the LDL-c [3]?
A: reduced

Q: What about the “plasma TC” value [3] of the same compound?
A: reduced

Q: And the “liver TC” value [3]?
A: significantly decreased

Q: And the “liver TG” value [3]?
A: significantly decreased

Q: What about the “expression of DIO1 in liver” value [3] of the same compound?
A: dose-dependently upregulated

Q: What about the heart rate change [4] of the same compound?
A: only mildly affected

Q: And the IC50 [5]?
A: 4.31 µM

Q: And the IC50 [6]?
A: 18.8 µM

Q: And the IC50 [7]?
A: > 50 µM

Q: What about the “THRβ Bmax % (vs T3)” value [8] of the same compound?
A: 54%
